US20250346604A1, “TRIAZOLOPYRIDAZINE COMPOUNDS USEFUL AS RAC1 INHIBITORS” (Revere Pharmaceuticals, priority 2022, published 2025)
Read-outs that look alike come from different tables or passages of the source.

Columns and labels:
Rac1 [1] = target: T1, Rac1 (Homo sapiens (Human), UniProt P63000); test: Rac Activation AlphaScreen Assay (RacI AS); format: biochemical
Protocol: 2. Rac Activation AlphaScreen Assay (RacI AS)
AlphaScreen® assays were performed in 96-well microplates in a final reaction volume of 60 μL. Recombinant His-Rac1, recombinant GST-PBD (PAK Binding Domain), donor and acceptor beads (PerkinElmer), and inhibitors were incubated in exchange buffer (20 mM Tris pH 7.5, 50 mM NaCl, 1 mM MgCl2, 1 mM EDTA, 500 nM GTPyS (guanosine 5′-[Y-thio]triphosphate)) at 37° C. Readings were performed on a Tecan M 1000 pro microplate reader after 1 hour. Data was analyzed using the GraphPad Prism software (GraphPad Software, Inc.), and IC50 (dose leading to 50% disruption of complex) was calculated from the dose-response curves.

[2] = system: MCF-7 human breast cancer cell line; test: Cell Viability Assay (MCF7); format: cell-based; settings: MCF7, three days after drug treatment
Protocol: 1. Cell Viability Assay (MCF7)
In order to determine a compound's effect on cell viability, PrestoBlue assays were performed as previously described by Kuhn et al. (2013) with modifications. MCF-7 human breast cancer and IGR-1 human melanoma cell lines were seeded into 384-well plates 24 hours prior to addition of drug. Cells are treated with 0 to 100 μM (concentrations) of compound solubilized in DMSO, adjusting the final concentration of DMSO to 0.5% in the well. Three days after drug treatment, cell viability was measured by adding Cell Titer Glo (Promega.; cat. No. G7570) according to the manufacturer's instructions. Briefly, Cell Titer Glo Substrate is diluted in Cell Titer Glo Buffer making the Cell Titer Glo Reagent. Cell Titer Glo Reagent is added to each well, mixed for 2 minutes to lyse cell, and then luficerase signal is read on a plate reader. Data is analyzed using the GraphPad Prism software (GraphPad Software, Inc.), and IC50 (dose leading to 50% cell death) was calculated from the dose-response curves. The percentage of living cells was then computed by comparison with control wells. Kuhn, Jonas et al., Assay and Drug Development Technologies, March 2013, Label-Free Cytotoxicity Screening Assay by Digital Holographic Microscopy.

[3] = Mouse Liver Microsome (MLM) Stability Assay; format: in vitro ADME; settings: for microsomal CLint / MLM Clearance (μL/min/mg protein): mouse liver microsomes
Protocol: 5. Mouse Liver Microsome (MLM) Stability Assay
Incubation of test compounds with mouse liver microsomes in the presence of NADPH co-factor was used to assay the in vitro mouse liver microsome metabolic clearance rate. In the presence of the co-factor NADPH, which initiates the reaction, mouse liver microsomes were incubated with test compounds at 37° C. at fixed time intervals. After centrifugation, supernatants were measured by LC/M S. The amount of compound at each time interval was compared to the amount of compound present at the 0 minute timepoint and percentage compound remaining values were calculated. MLM intrinsic clearance (Clint) (μL/min/mg protein) is calculated based on compound half-life.

over 90 kinases = test: commercial kinase screen (KinaseScan by Eurofins Discovery); format: binding; settings: at a concentration that was substantially inhibitory for Rac1
Protocol: (§1) The disclosed compounds in general have no or minimal activity against c-M et. Representative compounds were tested in a commercial kinase screen of over 90 kinases (KinaseScan by Eurofins Discovery).

c-M et = c-M et (Homo sapiens (Human), UniProt P08581); test: commercial kinase screen (KinaseScan by Eurofins Discovery), c-Met; format: binding; settings: at a concentration that was substantially inhibitory for Rac1
Sequence of c-M et (P08581 25-1390): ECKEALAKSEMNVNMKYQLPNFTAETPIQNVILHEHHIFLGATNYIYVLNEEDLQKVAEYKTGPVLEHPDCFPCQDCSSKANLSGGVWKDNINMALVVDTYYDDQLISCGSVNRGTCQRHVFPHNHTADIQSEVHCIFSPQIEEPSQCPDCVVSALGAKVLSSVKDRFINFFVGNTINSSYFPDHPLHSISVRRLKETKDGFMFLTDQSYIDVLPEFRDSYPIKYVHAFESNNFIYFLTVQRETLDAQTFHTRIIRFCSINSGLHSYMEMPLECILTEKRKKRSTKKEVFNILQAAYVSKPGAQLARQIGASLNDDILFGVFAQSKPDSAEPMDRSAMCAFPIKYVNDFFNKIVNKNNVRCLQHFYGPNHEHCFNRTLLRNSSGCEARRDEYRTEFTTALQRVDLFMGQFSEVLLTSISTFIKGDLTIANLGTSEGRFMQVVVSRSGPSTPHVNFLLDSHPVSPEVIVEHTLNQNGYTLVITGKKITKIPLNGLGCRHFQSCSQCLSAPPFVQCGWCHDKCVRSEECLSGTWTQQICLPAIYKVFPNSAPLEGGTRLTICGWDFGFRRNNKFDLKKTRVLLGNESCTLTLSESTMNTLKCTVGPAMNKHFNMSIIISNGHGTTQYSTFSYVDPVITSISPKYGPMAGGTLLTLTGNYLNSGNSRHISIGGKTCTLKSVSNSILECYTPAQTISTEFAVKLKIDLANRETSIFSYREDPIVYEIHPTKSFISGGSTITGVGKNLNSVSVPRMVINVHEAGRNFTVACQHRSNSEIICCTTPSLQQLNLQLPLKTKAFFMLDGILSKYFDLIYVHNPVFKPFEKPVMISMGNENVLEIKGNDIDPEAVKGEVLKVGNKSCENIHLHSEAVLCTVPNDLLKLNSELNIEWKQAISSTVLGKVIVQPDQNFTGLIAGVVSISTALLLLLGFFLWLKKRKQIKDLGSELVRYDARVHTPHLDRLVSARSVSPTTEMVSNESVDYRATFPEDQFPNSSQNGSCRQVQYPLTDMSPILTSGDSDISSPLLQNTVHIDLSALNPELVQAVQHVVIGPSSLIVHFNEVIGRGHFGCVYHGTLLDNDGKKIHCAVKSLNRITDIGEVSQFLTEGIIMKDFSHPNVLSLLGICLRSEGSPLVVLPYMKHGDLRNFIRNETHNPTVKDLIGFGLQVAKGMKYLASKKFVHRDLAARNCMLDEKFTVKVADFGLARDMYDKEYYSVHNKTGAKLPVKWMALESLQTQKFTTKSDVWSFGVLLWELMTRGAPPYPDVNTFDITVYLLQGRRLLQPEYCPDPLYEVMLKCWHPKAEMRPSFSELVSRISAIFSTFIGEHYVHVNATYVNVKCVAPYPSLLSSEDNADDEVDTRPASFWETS
Protocol: as §1

Rac1 [4] = target: T1, Rac1; test: Rac Activation AlphaScreen Assay (RacI AS); format: biochemical; settings: wild type Rac1, AlphaLisa assay; read-out: IC50 inhibitory concentration versus wild type Rac1
Rac = Rac (Homo sapiens (Human), UniProt P63000); settings: versus NSC23766; cited from earlier work
[5] = oral administration in mice; cited from earlier work
[6] = system: estrogen positive and HER2 positive breast cancer, prostate cancer, melanoma and colorectal cancer; settings: single agent and in combination with standard of care; cited from earlier work
[7] = Table 4, comparator compounds, read-out: IC50
[8] = Table 1, Formula I-A, read-out: Activity
[9] = NADPH, 37° C., read-out: MLM Clearance (μL/min/mg protein)
[10] = Table 2, Formula I-B, read-out: IC50
[11] = Table 3, other compounds of Formula I, read-out: IC50

Row | SMILES | IC50 (Rac1 [1]; read-out: Rac1 IC50) [nM] | IC50 (Rac1 [1]; [8]) [nM] | IC50 [2] [nM] | also measured
1 | COc1ccc(C(=O)Nc2cccc(-c3ccc4nnc(-c5ccc(C)o5)n4n3)c2)cc1OC [Comparator 1, reference compound] | > 5000 | – | – | IC50 (Rac1 [1]; [7]): 1000 to 10000 nM
2 | COc1cc(C(=O)Nc2cccc(-c3ccc4nnc(-c5ccc(C)o5)n4n3)c2)cc(OC)c1OC [Comparator 2, reference compound] | > 5000 | – | – | IC50 (Rac1 [1]; [7]): > 10000 nM
3 | COc1ccc(OC)c(C(=O)Nc2cccc(-c3ccc4nnc(-c5ccc(C)o5)n4n3)c2)c1 [Comparator 3, reference compound] | > 5000 | – | – | IC50 (Rac1 [1]; [7]): > 10000 nM
4 | COc1cccc(C(=O)Nc2cccc(-c3ccc4nnc(-c5ccc(C)o5)n4n3)c2)c1 [Compound 100] | 80 | ≤ 1000 | 11300 | –
5 | Cc1ccc(-c2nnc3ccc(-c4cccc(NC(=O)c5cccc(Cl)c5)c4)nn23)o1 [Compound 102, 3-chloro-N-(3-(3-(5-methylfuran-2-yl)-[1,2,4]triazolo[4,3-b]pyridazin-6-yl)phenyl)benzamide] | 520 | ≤ 1000 | – | IC50 ([2]; Homo sapiens, 72 h): 1400 nM; microsomal CLint [3, 9]: 19.7 µL/min/mg; activity against all kinases tested (over 90 kinases): inactive; activity against c-Met (c-M et): inactive
6 | Cc1ccc(-c2nnc3ccc(-c4cccc(NC(=O)c5ccc(F)c(Cl)c5)c4)nn23)o1 [Compound 103, 3-chloro-4-fluoro-N-(3-(3-(5-methylfuran-2-yl)-[1,2,4]triazolo[4,3-b]pyridazin-6-yl)phenyl)benzamide] | 430 | ≤ 1000 | – | IC50 ([2]; Homo sapiens, 72 h): 2300 nM; microsomal CLint [3, 9]: 4.5 µL/min/mg
7 | Cc1ccc(-c2nnc3ccc(-c4cccc(NC(=O)c5cccc(F)c5)c4)nn23)o1 [Compound 105] | 150 | ≤ 1000 | 2000 | MLM Clearance (μL/min/mg protein) ([3]; NADPH, 37° C.): 38.7 μL/min/mg protein
8 | Cc1ccc(-c2nnc3ccc(-c4cccc(NC(=O)c5ccc(F)c(F)c5)c4)nn23)o1 [Compound 106] | 270 | ≤ 1000 | 3500 | MLM clearance [3]: below 50 μL/min/mg protein; MLM Clearance (μL/min/mg protein) ([3]; NADPH, 37° C.): 28.2 μL/min/mg protein
9 | Cc1ccc(-c2nnc3ccc(-c4cccc(NC(=O)c5cccc(SC(C)C)c5)c4)nn23)o1 [Compound 109, 3-(isopropylthio)-N-(3-(3-(5-methylfuran-2-yl)-[1,2,4]triazolo[4,3-b]pyridazin-6-yl)phenyl)benzamide] | – | ≤ 1000 | – | –
10 | CCc1cccc(C(=O)Nc2cccc(-c3ccc4nnc(-c5ccc(C)o5)n4n3)c2)c1 [Compound 111, 3-ethyl-N-(3-(3-(5-methylfuran-2-yl)-[1,2,4]triazolo[4,3-b]pyridazin-6-yl)phenyl) benzamide] | – | ≤ 1000 | – | MLM clearance [3]: below 50 μL/min/mg protein
11 | CCc1cc(C(=O)Nc2cccc(-c3ccc4nnc(-c5ccc(C)o5)n4n3)c2)ccc1F [Compound 114, 3-ethyl-4-fluoro-N-(3-(3-(5-methylfuran-2-yl)-[1,2,4]triazolo[4,3-b]pyridazin-6-yl)phenyl)benzamide] | – | ≤ 1000 | – | microsomal CLint ([3]; mouse, read-out: MLM clearance): < 50 µL/min/mg
12 | Cc1ccc(-c2nnc3ccc(-c4cccc(NC(=O)c5cccc(Cl)c5)c4)nn23)o1 [Compound 119, 3-chloro-N-(3-(3-(5-(methyl-d3)furan-2-yl)-[1,2,4]triazolo[4,3-b]pyridazin-6-yl)phenyl) benzamide] | 1500 | – | 6300 | –
13 | COc1cccc(C(=O)Nc2cccc(-c3ccc4nnc(-c5cncs5)n4n3)c2)c1 [Compound 200] | 240 | – | 1800 | IC50 (Rac1 [1]; [10]): ≤ 1000 nM; MLM Clearance (μL/min/mg protein) ([3]; NADPH, 37° C.): 54 μL/min/mg protein
14 | O=C(Nc1cccc(-c2ccc3nnc(-c4cncs4)n3n2)c1)c1ccc(F)cc1 [Compound 201, 4-fluoro-N-(3-(3-(thiazol-5-yl)-[1,2,4]triazolo[4,3-b]pyridazin-6-yl)phenyl)benzamide] | 170 | – | – | IC50 (Rac1 [1]; [10]): ≤ 1000 nM; IC50 ([2]; Homo sapiens, 72 h): 3100 nM; microsomal CLint [3, 9]: 15.5 µL/min/mg
15 | Cc1ccc(-c2nnc3ccc(-c4cccc(NC(=O)c5cccc(Cl)c5)c4)nn23)s1 [Compound 303] | > 5000 | – | > 10000 | IC50 (Rac1 [1]; [11]): 1000 to 10000 nM
16 | Cc1ccc(-c2nnc3ccc(-c4cccc(NC(=O)c5ccc(F)cc5)c4)nn23)s1 [Compound 304] | 690 | – | 19800 | IC50 (Rac1 [1]; [11]): ≤ 1000 nM
17 | CCn1c2ccccc2c2cc(Nc3ccnc(NCCCN4CCOCC4)n3)ccc21 [EHop-016] | – | – | – | IC50 (Rac1 [4]): ~10000 nM; efficiency as an inhibitor of Rac activity relative to NSC23766 (Rac): 100 fold; systemic exposure [5]: low systemic exposure
18 | FC(F)(F)c1ccc2c(SCCCCCCn3cnc(CN4CCOCC4)c3)ccnc2c1 [GY S32661] | – | – | – | activity against animal models of cancer [6]: very good activity
